Test results reported in patent publication US6562387B2, “Ambient stable beverage and process of making” (priority 2000, dated 2003).
Values after ≈ are worked out from the molar mass of the structure shown. Like-named read-outs stand apart in the source and are kept apart here.

Legend:
[1] = Minimum inhibitory concentration (MIC) of antimicrobials / essential oils; type: cell-based
From the text: The minimum inhibitory concentration (MIC) is given for each compound.
In each case the respective minimum inhibitory concentration (MIC) and their specific preferred concentration is also given.

[2] = tested on: yeast Saccharomyces cerevisiae X2180-1B; settings: RTD tea pH 3.4, 1-175 ppm cinnamic acid, 1-250 ppm DMDC, 14 days at 25° C.
Protocol: Tubes were inoculated with 10^4cells of the yeast Saccharomyces cerevisiae X2180-1B. Immediately following inoculation, dimethyl dicarbonate, DMDC was added at concentrations ranging from 1-250 ppm.
Tubes were inoculated with 10^4 cells of the yeast Saccharomyces cerevisiae X2180-1B. Immediately following inoculation, dimethyl dicarbonate, DMDC was added at concentrations ranging from 1-250 ppm.

[3] = tested on: yeast Saccharomyces cerevisiae X2180-1B; settings: synthetic soft drink pH 3.4, 1-175 ppm cinnamic acid, 1-250 ppm DMDC, 14 days at 25° C.
Protocol: Synthetic soft drink contained glucose, 8%w/v, citric acid 3 g/l, potassium orthophosphate 1 g/l, magnesium chloride 0.1 g/g and yeast extract 0.1 g/l. […] Tubes were inoculated with 10^4 cells of the yeast Saccharomyces cerevisiae X2180-1B. Immediately following inoculation, dimethyl dicarbonate, DMDC was added at concentrations ranging from 1-250 ppm.

[4] = cited from earlier work
[5] = tested on: mould; settings: cited from earlier work
[6] = Table I, preferred essential oils, test organism not given, read-out: MIC (ppm)
[7] = 25 ppm citral dimethyl acetal together with 35 ppm cumic alcohol
[8] = 100 ppm essential oil component
[9] = Table I, preferred essential oils, test organism not given
[10] = Table II, particularly preferred essential oils, test organism not given

CCC=C(C)C=O [2-Methyl-2-pentenal]
MIC [1, 6]: 1270 µg/mL (≈ 13000 µM)

O=CC=Cc1ccccc1 [Cinnamaldehyde]
MIC [1, 6]: 66 µg/mL (≈ 499 µM)

CCCCCCCCC(=O)OC [Methyl nonanoate]
MIC [1, 6]: 90 µg/mL (≈ 522 µM)

CC(C)c1ccc(CO)cc1 [Cumic alcohol]
tubes supporting yeast growth, comparison with control FIG. 1 [2, 7]: very substantially fewer tubes supporting yeast growth
tubes supporting yeast growth, comparison with control FIG. 1 [2, 8]: very substantially fewer tubes supporting yeast growth
tubes supporting yeast growth, comparison with control FIG. 11 [3, 7]: very substantially fewer tubes supporting yeast growth
tubes supporting yeast growth, comparison with control FIG. 11 [3, 8]: very substantially fewer tubes supporting yeast growth
MIC (ppm) [1, 9]: 450 ppm
MIC (ppm) [1, 10]: 450 ppm

CCCCCC1CCC(=O)O1 (stereo not drawn) [γ-Nonanoic lactone]
MIC (ppm) [1, 9]: 63 ppm

C=C(C)C1CC=C(C)C(=O)C1 (stereo not drawn) [Carvone]
MIC [1, 6]: 300 µg/mL (≈ 2000 µM)

CC(=O)C(=O)c1ccccc1 [1-Phenyl-1,2-propanedione]
MIC [1, 6]: 222 µg/mL (≈ 1500 µM)

COc1cc(C=O)ccc1O [Vanillin]
MIC [1, 6]: 1220 µg/mL (≈ 7990 µM)

COc1ccccc1C=CC=O [o-Methoxycinnamaldehyde]
MIC [1, 6]: 130 µg/mL (≈ 802 µM)

CCCC1CCCC(=O)O1 (stereo not drawn) [δ-Octalactone]
MIC (ppm) [1, 9]: 568 ppm

CC(C)CC=C(C=O)c1ccccc1 [5-Methyl-2-phenyl-2-hexenal]
MIC [1]: 162 µg/mL (≈ 860 µM)

COC(=O)c1ccccc1N [Methyl anthranilate]
MIC [1, 6]: 310 µg/mL (≈ 2050 µM)

CC(=O)OCc1ccc2c(c1)OCO2 [Piperonyl acetate]
tubes supporting yeast growth, comparison with control FIG. 1 [2, 8]: very substantially fewer tubes supporting yeast growth
tubes supporting yeast growth, comparison with control FIG. 11 [3, 8]: very substantially fewer tubes supporting yeast growth
MIC [1]: 242 µg/mL
MIC (ppm) [1, 10]: 242 ppm

CC1CCC(C(C)C)C(O)C1 (stereo not drawn) [Neomenthol]
MIC (ppm) [1, 9]: 156 ppm

CCCOC(=O)c1ccccc1 [Propyl benzoate]
MIC [1, 6]: 66 µg/mL (≈ 402 µM)

CC(C)=C1CC[C@@H](C)CC1=O [Pulegone]
MIC [1, 6]: 152 µg/mL (≈ 998 µM)

CCCCCCCC1CCC(=O)O1 (stereo not drawn) [γ-Undecalactone]
MIC (ppm) [1, 9]: 28 ppm

CCCCCCCCO [1-Octanol]
MIC [1, 6]: 247 µg/mL (≈ 1900 µM)

CC1=CCC(O)(C(C)C)CC1 (stereo not drawn) [Terpinen-4-ol]
MIC [1, 6]: 616 µg/mL (≈ 3990 µM)

CC=CC=CC=O [Sorbic aldehyde (2,4-hexadienal), 2,4-hexadienal]
MIC [1, 6]: 86 µg/mL (≈ 895 µM)

CCCCCCCCC(=O)O [Nonanoic acid]
MIC [1, 6]: 63 µg/mL (≈ 398 µM)

O=C(OCc1ccccc1)c1ccc(O)cc1 [Benzyl-4-hydroxybenzoate]
MIC [1, 6]: 68 µg/mL (≈ 298 µM)

CC(C)=CCCC(C)=CC=O [Citral]
tubes supporting yeast growth, comparison with control FIG. 1 [2, 8]: very substantially fewer tubes supporting yeast growth
tubes supporting yeast growth, comparison with control FIG. 11 [3, 8]: very substantially fewer tubes supporting yeast growth
MIC [1, 6]: 228 µg/mL (≈ 1500 µM)
MIC (ppm) [1, 10]: 228 ppm

O=C(O)CCCC1CCCCC1 [Cyclohexanebutyric acid]
MIC [1, 6]: 68 µg/mL (≈ 399 µM)

CC(C)CCCC(C)CCO (stereo not drawn) [3,7-Dimethyl-1-octanol]
tubes supporting yeast growth, comparison with control FIG. 1 ([2]; 50 ppm essential oil component): very substantially fewer tubes supporting yeast growth
tubes supporting yeast growth, comparison with control FIG. 11 ([3]; 50 ppm essential oil component): very substantially fewer tubes supporting yeast growth
MIC [1, 6]: 15.8 µg/mL (≈ 99.8 µM)
MIC (ppm) [1, 10]: 15.8 ppm

CCOC(=O)CCC1CCCCC1 [Ethyl cyclohexanepropionate]
MIC [1, 6]: 184 µg/mL (≈ 998 µM)

CC/C=C\CC1=C(C)CCC1=O [Jasmone]
MIC [1, 6]: 246 µg/mL (≈ 1500 µM)

CCCCCCCCCCC=O [Undecanal]
MIC [1, 6]: 34 µg/mL (≈ 200 µM)

CC(C)(C)C1CCC(=O)CC1 [4-tert-Butylcyclohexanone]
MIC [1, 6]: 462 µg/mL (≈ 3000 µM)

CCCCCCCCCCCO [1-Undecanol]
MIC [1, 6]: 14 µg/mL (≈ 81.2 µM)

CC1(C)C2CC=C(CO)C1C2 (stereo not drawn) [Myrtenol]
tubes supporting yeast growth, comparison with control FIG. 1 [2, 8]: very substantially fewer tubes supporting yeast growth
tubes supporting yeast growth, comparison with control FIG. 11 [3, 8]: very substantially fewer tubes supporting yeast growth
MIC (ppm) [1, 9]: 137 ppm
MIC (ppm) [1, 10]: 137 ppm

CCCCCCCCCC=O [Decanal]
MIC [1, 6]: 47 µg/mL (≈ 301 µM)

CCCCC/C=C/C=C/C=O [trans, trans-2,4-Decadienal]
tubes supporting yeast growth, comparison with control FIG. 1 ([2]; 15 ppm essential oil component): very substantially fewer tubes supporting yeast growth
tubes supporting yeast growth, comparison with control FIG. 11 ([3]; 15 ppm essential oil component): very substantially fewer tubes supporting yeast growth
MIC [1, 6]: 8 µg/mL (≈ 52.5 µM)
MIC (ppm) [1, 10]: 8 ppm

Tolualdehyde
MIC (ppm) [1, 9]: 240 ppm

CC(=O)OCCC1CCCCC1 [2-Cyclohexylethyl acetate]
MIC [1, 6]: 102 µg/mL

C/C(C=O)=C\c1ccccc1 [α-Methyl-trans-cinnamaldehyde]
MIC (ppm) [1, 9]: 58.4 ppm

COC(=O)OC(=O)OC [DMDC, Dimethyl dicarbonate]
break down in aqueous environments [4]: breaks down rapidly
efficacy against mould contamination [5]: inefficient

CC(C)=CCCC(C)CCO (stereo not drawn) [Citronellol]
MIC [1, 6]: 125 µg/mL (≈ 800 µM)

CCCCCCCC(=O)O [Octanoic acid (caprylic), Octanoic acid]
MIC [1, 6]: 115 µg/mL (≈ 797 µM)

CC(=O)OCCc1scnc1C [4-Methyl-5-thiazoleethanol acetate]
MIC [1, 6]: 1110 µg/mL

CCOC(=O)C(C)=O [Ethyl pyruvate]
MIC [1, 6]: 1390 µg/mL (≈ 12000 µM)
MIC (ppm) [1, 10]: 1392 ppm

CCCCCCCCCCO [Decanol]
MIC [1, 6]: 24 µg/mL (≈ 152 µM)

COC(=O)c1ccccc1O [Methyl salicylate]
MIC [1, 6]: 152 µg/mL (≈ 999 µM)

C=C(C)C1CCC(C)C(O)C1 (stereo not drawn) [Dihydrocarveol]
MIC (ppm) [1, 9]: 540 ppm

COC(C=C(C)CCC=C(C)C)OC [Citral dimethyl acetal]
tubes supporting yeast growth, comparison with control FIG. 1 [2, 7]: very substantially fewer tubes supporting yeast growth
tubes supporting yeast growth, comparison with control FIG. 1 [2, 8]: very substantially fewer tubes supporting yeast growth
tubes supporting yeast growth, comparison with control FIG. 11 [3, 7]: very substantially fewer tubes supporting yeast growth
tubes supporting yeast growth, comparison with control FIG. 11 [3, 8]: very substantially fewer tubes supporting yeast growth
MIC [1, 6]: 198 µg/mL (≈ 998 µM)
MIC (ppm) [1, 10]: 198 ppm
